Experiments:
[1] = test system: mTOR; assay: mTOR expression at protein level in iFECD (western blot); assay type: cell-based, human; details: 3 pmol mTOR siRNA, FIG. 6
Experimental: (§1) The medium was removed from a culture dish in which iFECDs were being cultured, and the cells were supplemented with 1×PBS (−) that was preheated to 37° C., and were washed. This was repeated twice. The cells were supplemented again with 1×PBS (−) and incubated for 3 minutes at 37° C. (5% CO2). After removing the PBS (−), the cells were supplemented with 0.05% Trypsin-EDTA (Nacalai Tesque, 32778-34) and incubated for 5 minutes at 37° C. (5% CO2). The cells were then suspended in a medium, and collected by centrifugation at 1500 rpm for 3 minutes. DMEM (Nacalai Tesque, 08456-36)+10% FBS (Biowest, S1820-500)+1% P/S (Nacalai Tesque, 26252-94) was used as the medium.
iFECDs were seeded on a 12-well plate at a ratio of 3×10^4 cells per well and cultured for 24 hours at 37° C. (5% CO2) (medium: DMEM+10% FBS+1% P/S). After 24 hours, the medium was removed. Lipofectamine (invitrogen, 92008) and 3 pmol of mTOR siRNA (Ambion, AS026M0L) were added to culture the cells for 24 hours (medium: OptiMEM-I (invitrogen, 31985-088)). The mTOR siRNA that was used has a sense strand set forth in SEQ ID NO: 1 and an antisense strand set forth in SEQ ID NO: 2. […]
5 μg of the extracted protein was separated by SDS-PAGE and transferred onto a nitrocellulose membrane. […] The detected band strength was analyzed with a lumino image analyzer LAS-4000 mini (Fuji Film) and ImageQuant™ software (GE Healthcare).

[2] = test system: fibronectin; assay: Western blot of fibronectin production induced by TGF-β2 in iFECD; assay type: cell-based, human; details: 3 pmol mTOR siRNA, then TGF-β2 10 ng/ml 24 h, FIG. 9
Experimental: as §1
iFECDs were seeded on a 6-well plate at a ratio of 2×10^5 cells per well and cultured for 24 hours at 37° C. (5% CO2) (DMEM+10% FBS+1% P/S was used as the medium). After 24 hours, the medium was removed. Rapamycin was added to culture the cells for 24 hours. (DMEM+2% FBS+1% P/S was used as the medium). After 24 hours, the medium was removed. A medium containing 10 ng/ml of Recombinant Human TGF-β2 (Wako, 200-19911) and rapamycin was added to culture the cells for 24 hours. […]
5 μg of the extracted protein was separated by SDS-PAGE and transferred onto a nitrocellulose membrane. […] The detected band strength was analyzed with a lumino image analyzer LAS-4000 mini (Fuji Film) and ImageQuant™ software (GE Healthcare). […]

mTOR siRNA: siRNA against mTOR gene (Ambion, AS026M0L); sense strand SEQ ID NO: 1, antisense strand SEQ ID NO: 2 (sense CAUUCGCAUUCAGUCCAUATT; antisense UAUGGACUGAAUGCGAAUGAT; chemistry not given here)
mTOR expression, protein level (western blot) [1]: suppression was found | production of fibronectin induced by TGF-β2, western blot [2]: hardly observed
